Measured values reported in patent publication US6682545B1, “System and device for preventing restenosis in body vessels” (The Penn State Research Foundation, priority 1999, dated 2004).
“Also recorded” adds a separate entry of the source.

Tests used:
ERK2 = ERK2 phosphorylation in excised carotid arteries after angioplasty (Western blot); format: in vivo; conditions: ceramide-coated balloon angioplasty, rabbit carotid arteries
Protocol: (§1) Thus, to elucidate mechanisms by which ceramide prevents restenosis, the phosphorylation states of ERK2 and PKBα were investigated using freshly excised carotid arteries after angioplasty (FIG. 5). Phosphorylation of ERK2 and PKBα were increased at 15 minutes and 24 hours post-balloon injury. The sustained phosphorylation of these kinases most likely reflects continuous remodeling of damaged arteries. […] Thus, acute ceramide therapy may directly modulate kinases or regulate putative ceramide-activated protein phosphatases that down-regulate these signaling pathways.
(§2) Specifically, in FIG. 5, ERK2 and PKBα phosphorylation was diminished after ceramide-coated balloon angioplasty in rabbit carotid arteries. Panel A depicts a representative Western blot for ERK-2 and PKBα probed using phosphorylation-specific antibodies. Lysates from NIH3T3 cells treated with or without PDGF were used as positive and negative controls, respectively. This immunoblot is representative of similar experiments using a total of 8 animals. Panels B-C quantifies the immunoblot data.

[1] = system: rat glomerular mesangial cells; conditions: cited from earlier work
[2] = system: PCNA positive vascular smooth muscle cells; test: PCNA immunohistochemistry of carotid arteries after angioplasty; format: in vivo, rabbit; conditions: neointimal layer, coated balloon-injured carotid artery (balloon-injured 2.8%±0.1%, control 0.2%±0.1%)
From the text: The effects of ceramide treatment upon VSM cell growth in vivo were also investigated. Imunohistochemical techniques were employed to identify VSM using smooth muscle cell-specific actin antibody (FIGS. 4A-B) and cell growth using proliferating cell nuclear antigen (PCNA) antibody (FIGS. 4C-F). […] PCNA is synthesized in early G1 and S phases of the cell cycle, and thus can be used as a marker for cell proliferation. In FIGS. 4C-F, representative photomicrographs depicting PCNA positive staining are shown for control, balloon-injured, ceramide-treated and dihydroceramide-treated carotid arteries, respectively. […] C6-ceramide (0.6%±0.2%) but not dihydro-C6-ceramide (1.9%±0.3%) diminished the number of PCNA positive cells in the neointimal layer but not in the medial layer of the carotid artery.
Specifically, in FIG. 4, ceramide-treated catheters reduced PCNA expression in vascular smooth muscle cells after angioplasty. Smooth muscle actin expression was analyzed by immunohistochemistry utilizing a monoclonal anti-alpha smooth muscle antibody, and PCNA positive cell numbers were assessed with a primary mouse monoclonal IgG2a antibody for PCNA. […] These immunohistochemical micrographs are representative of four separate experiments. […]

[3] = Ceramide transfer from balloon catheter to carotid artery ([3H]C6-ceramide tracer, TLC, in situ autoradiography); format: in vivo, rabbit
Protocol: The inability of experimentally effective therapies to succeed in clinical trials is often the consequence of sub-optimal doses of therapeutics being delivered to the site of injury for the appropriate duration. Moreover, the efficacy of therapy may be a consequence of biomechanical force transferring ceramide from the inflated balloon to the site of vascular lesions. Therefore, experiments were conducted to quantify ceramide transfer between the balloon and the carotid artery; the pharmacokinetics of ceramide transfer and delivery from the balloon catheter to the damaged artery was assessed. Using [^3H]C6-ceramide as a tracer, it was calculated that 70±10 nmol of C6-ceramide was applied to the balloon as a gel from a solution of 5 μmol of C6-ceramide. […] This translates to roughly 58 nmol of C6-ceramide being transferred from the balloon catheter during the angioplasty procedure. To test whether inflation of the balloon within the carotid artery was essential for optimal transfer of the ceramide, the surgical procedure was performed using noninflated balloons. The recovered ceramide mass on the inserted but noninflated balloon was 14±3 nmol. Rabbit carotid arteries treated with radiolabeled lipid were homogenized, and lipid products were separated by thin-layer chromatography (TLC) (FIG. 3A). The mass of intact ceramide isolated 15 minutes after angioplasty was 2.7±0.4 nmol for inflated balloon treatments and 0.7±0.2 nmol for noninflated balloon treatments. […] As the transferred ceramide was initially delivered to 0.0365 cm^3 of carotid artery luminal volume, the effective concentration of ceramide at the site of balloon injury is estimated to be 1.5 mmol/L. Thus, an effective and reproducible dose of ceramide can be delivered to the damaged artery as a consequence of the balloon inflation.
In situ autoradiography was utilized to document arterial penetrance for [^3H]C6-ceramide transferred from the balloon catheter after angioplasty (FIGS. 3B through 3D). […] This increase in pixel intensity reflects an increase in intact ceramide, as at this time point 89±4% of the radiolabel comigrates with authentic C6-ceramide standards. Pixel intensity was more intense in inflated (panel C) versus noninflated (panel D) arteries. Expressed as pixel density per square millimeter for 10 randomly selected blocks with background values subtracted, medial staining was increased 4.7±0.2-fold for ceramide-coated inflated versus noninflated balloons. Again, this supports the conclusion that balloon inflation leads to maximal delivery and penetrance.
The degradation of the rapidly intercalated radiolabeled ceramide by TLC was also assessed. For the 15-minute postangioplasty time point, 89±4% of the TLC-separated lipid comigrated with authentic C6-ceramide standards. This corresponded to a recovered mass of 2.7±0.4 mnol of ceramide. At 60 minutes after angioplasty, 1.3±0.6 nmol of ceramide was recovered. Thus, 50% radiolabel can still be recovered as intact ceramide in 1 hour. This decrease in ceramide mass corresponded to an increase in TLC-separated gangliosides and cerebrosides but not sphingosines.

PKBα = PKBα phosphorylation in excised carotid arteries after angioplasty (Western blot); format: in vivo; conditions: ceramide-coated balloon angioplasty, rabbit carotid arteries
Protocol: as §1, §2

[4] = system: A7r5 aortic smooth muscle cells; conditions: cited from earlier work
[5] = system: neointimal hyperplasia in rabbit carotid arteries; test: Restenosis after balloon angioplasty with ceramide-coated embolectomy catheter balloon; format: in vivo, New Zealand white rabbits; conditions: rabbit carotid artery, 2 weeks post balloon injury
From the text: Experiments were designed to evaluate the therapeutic potential of ceramide-coated embolectomy catheters upon restenosis after balloon angioplasty. Initial studies assessed the extent of restenosis in rabbit carotid arteries after balloon angioplasty as a function of time. Animals were sacrificed 1, 2, 4 and 6 weeks after balloon injury. Marked neointimal hyperplasia was observed as early as 1 week and peaked at 4 weeks (FIG. 2A). […] FIGS. 2B-E illustrate hematoxylin and eosin stained cryostat sections of rabbit carotid arteries. […] Furthermore, it may be theorized that the effects of ceramide are due to biochemical actions and not lipophilic properties.
Initial experiments optimized the methods to induce restenosis after angioplasty in carotid arteries from New Zealand white rabbits. Twenty-one rabbits were divided into three experimental groups, undergoing either balloon angioplasty with a vehicle-treated catheter, a C6-ceramide-treated catheter or a dihydro-C6-ceramide-treated catheter. Each rabbit underwent identical procedures to denude the common carotid artery of endothelium and establish the cellular conditions to promote restenosis. The right common carotid served as the sham control while the left carotid served as the experimental side. […] FIG. 2A represents the time course of restenosis after angioplasty while FIGS. 2B-2E depict representative H/E stained sections. […] The scale for these photomicrographs is 200 microns. FIG. 2F quantifies the extent of restenotic lesions.

[6] = system: restenosis / thrombus formation; test: Anticoagulation therapy (Lovenox) and thrombus formation with ceramide balloon angioplasty; format: in vivo; conditions: ceramide-treated balloon angioplasty
From the text: To prevent thrombus formation, patients routinely receive anti-coagulants prior to percutaneous transluminal coronary angioplasty. Thus, the consequences of anticoagulation therapy on the effectiveness of ceramide therapy were investigated.

[7] = system: restenotic lesions after balloon angioplasty; test: Restenosis after balloon angioplasty, ceramide delivered in solution by infusion-type catheter; format: in vivo
From the text: It is noted that infusion-type catheters have the advantage to deliver ceramide in a BSA vehicle at a discrete dose to the site of arterial injury. It was thus determined whether ceramide delivered by solution using an infusion-type catheter is also effective in reducing restenosis as ceramide delivered using a catheter with a gel coated balloon tip. The balloon at the tip of a 4F arterial bilumen irrigation embolectomy catheter was inflated to a diameter equivalent to that of the earlier experiments. Three infusions of 10 μM C6-ceramide for 1 minute each reduced restenosis after balloon angioplasty by 39%. Dihydro-C6-ceramide at an equivalent dose had no effect upon restenotic lesions. These studies further support the novelty and efficacy of ceramide-coated balloon catheters as intra-arterial site-specific delivery devices.

neointimal hyperplasia = test: Angioplasty-induced injury, other cell-permeable ceramide derivatives; conditions: in vivo
From the text: Other cell-permeable ceramide derivatives can also limit neointimal hyperplasia.

[8] = system: primary VSM isolated from rabbit carotid arteries; test: Apoptosis by fluorescence-activated cell sorting after propidium iodide staining; format: cell-based; conditions: 100 nM
From the text: Ceramide treatment correlated with growth arrest at G0G1and not apoptosis in these smooth muscle-like pericytes. […] Thus, the therapeutic efficacy of cell-perneable ceramide in restenosis includes its ability to arrest VSM growth without inducing significant apoptosis.

[9] = 15 minutes after angioplasty, inflated balloon

CCCCCCCCCCCCC/C=C/[C@@H](O)[C@H](CO)NC(=O)CCCCC [C6-ceramide]
phosphorylation state of ERK2 (ERK2): reduced below basal activation levels; also recorded: diminished
effect on tyrosine kinase receptor- and G-protein receptor-linked mitogenesis [1]: inhibit
percentage of PCNA positive cells [2]: 0.6%±0.2%
effective concentration of ceramide at the site of balloon injury ([3]; 0.0365 cm^3 carotid artery luminal volume): ~1.5 mmol/L
recovered mass of ceramide ([3]; 15-minute postangioplasty time point): 2.7±0.4 mnol
radiolabel comigrating with authentic C6-ceramide standards (TLC) ([3]; 15 minutes after angioplasty): 89±4%
mass of intact ceramide isolated from carotid artery [3, 9]: 2.7 ± 0.4 nmol
mass of intact ceramide isolated from carotid artery ([3]; 15 minutes after angioplasty, noninflated balloon): 0.7 ± 0.2 nmol
recovered mass of ceramide ([3]; 60 minutes after angioplasty): 1.3 ± 0.6 nmol
amount remaining on the balloon ([3]; after insertion and inflation): 12 ± 2 nmol
amount applied to the balloon as a gel ([3]; from a solution of 5 μmol of C6-ceramide, [3H] tracer): 70 ± 10 nmol
radiolabel recovered as intact ceramide ([3]; in 1 hour): 50%
amount transferred from the balloon catheter during angioplasty ([3]; inflated balloon): roughly 58 nmol
recovered ceramide mass on the balloon ([3]; inserted but noninflated balloon): 14 ± 3 nmol
phosphorylation state of PKBα (PKBα): reduced below basal activation levels; also recorded: diminished
effect on tyrosine kinase receptor- and G-protein receptor-linked mitogenesis [4]: inhibit
effect on neointimal hyperplasia / restenosis after balloon injury [5]: significantly reduced the neointimal hyperplasia; also recorded: blocked neointimal hyperplasia
inhibition of balloon-induced neointimal formation (reduction of the neointimal/medial ratio) [5]: 92%
thrombus formation [6]: Neither ceramide- nor vehicle-treated balloon angioplasty induced thrombus formation
reduction of restenosis after balloon angioplasty ([7]; three infusions of 10 μM for 1 minute each, BSA vehicle): 39%

CCCCCCCCCCCCCCC[C@@H](O)[C@H](CO)NC(=O)CCCCC [dihydro-C6-ceramide, reference compound]
percentage of PCNA positive cells [2]: 1.9%±0.3%
effect on neointimal hyperplasia / restenosis after balloon injury [5]: did not reduce restenosis
effect on neointimal hyperplasia / restenosis after balloon injury ([5]; listed as dihydro-CC6-ceramide): not
effect upon restenotic lesions ([7]; equivalent dose): had no effect

CCCCCCCCCCCCC/C=C/[C@@H](O)[C@H](CO)N(C)C [dimethylsphingosine]
effect on angioplasty-induced injury (neointimal hyperplasia): effective in limiting angioplasty-induced injury

C=C1[C@@H](O)[C@@H]2O[C@]3(CC[C@H](/C=C/[C@@H](C)[C@@H]4CC(C)=C[C@@]5(O[C@H](C[C@@](C)(O)C(=O)O)CC[C@H]5O)O4)O3)CC[C@H]2O[C@@H]1[C@@H](O)C[C@H](C)[C@H]1O[C@@]2(CCCCO2)CC[C@H]1C [okadaic acid]
apoptosis ([8]; 24 hours): 52%
apoptosis ([8]; 40 hours): 69%±2%

[^3H]C6-ceramide [reference compound]
radiolabel comigrating with authentic C6-ceramide standards (TLC) ([3]; 15 minutes after angioplasty): 89±4%
arterial penetrance (in situ autoradiography) [3, 9]: observed throughout the medial layers of the artery
increase in medial staining (pixel density per square millimeter), inflated versus noninflated balloons ([3]; autoradiography, 10 randomly selected blocks, background subtracted): 4.7±0.2 fold
